Laboratory results from article PMC4772728 (Drug development and industrial pharmacy, 2013).
≈ marks a conversion by molar mass, not a printed value. Where “and” joins values, the source holds several entries; their conditions need not be identical. Equal values may be shown once. Marks after values point to notes of the source that are not given here.

Experiments:
[1] = cited from earlier work
[2] = Stratum corneum/water partition coefficient determination; type: physicochemical, human
[3] = Solubility determination; type: physicochemical; details: for solubility: thermodynamic from solid
[4] = Octanol/water partition coefficient determination; type: physicochemical
[5] = PBS pH 7.4 with 30% DMSO, 37 °C, pseudo first order
[6] = pH 7.4
[7] = fresh rat plasma, 37 °C
[8] = stratum corneum / 5% propylene glycol in water, 24 hrs

## O=C(O)Cc1ccccc1Nc1c(Cl)cccc1Cl [DA, Diclofenac Acid, reference compound]
[1]; ref Drug Bank website
  octanol/water partition coefficient: 4.9
[2]; water substituted with 0.02 M phosphate buffer at pH 2.5, 24 hrs
  Partition coefficient (LogK SC/ 5% PG water): 2.97^a
[3]; organic solvent or mixture, Solubility in IPM
  solubility: 12600 µM (≈ 3730 µg/mL)
[3]; pH 2.5, aqueous buffer, Solubility in water
  solubility: 3.4 µM (≈ 1.01 µg/mL)
[4]; octanol/0.02 M phosphate buffer pH 2.5, pH 2.5
  logP at 24 h: 4.57

## COC(=O)Cc1ccccc1Nc1c(Cl)cccc1Cl [MD, Methanol Diclofenac Ester]
[5]
  Hydrolysis in PBS (half life in hours): 34.6 h
[2]; [8]
  Partition coefficient (LogK SC/ 5% PG water): 3.56
[3]
  Solubility in 5% PG water: 1.9 µM (≈ 0.589 µg/mL)
  Solubility in Hexane: 21000 µM (≈ 6510 µg/mL)
  Solubility in IPM: 43000 µM (≈ 13300 µg/mL)
  Solubility in water: 1.9 µM (≈ 0.589 µg/mL)
[3]; pH 2.5
  Decrease of solubility in water relative to unionized DA: more than 2 folds
[4]
  Partition coefficient (LogP octanol/water): 5.00

## O=C(Cc1ccccc1Nc1c(Cl)cccc1Cl)OCCCO [PD, 1,3 Propylene Glycol Diclofenac Ester]
[6]
  Aqueous solution flux (steady state, across HEM): 0.84(0.25) nmol·cm^−2·hr^−1
[5]
  Hydrolysis in PBS (half life in hours): 63.9 h
[7]
  Bioconversion in plasma (half life in min): 2.4 min and 2.41 min
[2]; [8]
  Partition coefficient (LogK SC/ 5% PG water): 2.58
[3]
  Solubility in 5% PG water: 4.8 µM (≈ 1.7 µg/mL)
  Solubility in Hexane: 2220 µM (≈ 786 µg/mL)
  Solubility in IPM: 13600 µM (≈ 4820 µg/mL)
  Solubility in water: 3.3 µM (≈ 1.17 µg/mL)
[4]
  Partition coefficient (LogP octanol/water): 4.08

## O=C(c1ccccc1)c1ccc2n1CCC2C(=O)O (stereo not drawn) [ketorolac]
[1]
  LogPO/W: around 1

## Glycerol Diclofenac Ester [GD]
[6]
  Aqueous solution flux (steady state, across HEM): 5.54(0.78) nmol·cm^−2·hr^−1
[3]
  Solubility in 5% PG water: 662 µM
  Solubility in Hexane: 386 µM
  Solubility in IPM: 69700 µM
  Solubility in water: 551 µM
[3]; pH 2.5
  Increase of solubility in purified water relative to unionized DA: > 100 fold
[4]
  Partition coefficient (LogP octanol/water): 3.30
